According to patent US5296493A, “1-substituted-2-(N-pheny l-N-(phenylmethyl)methanamine)-4,5-dihydro-imidazoles and related compounds and their use in treating calcium overload in brain cells” (NeuroSearch A/S, priority 1991, dated 1994):
Where a name gives a salt, the structure may show the parent alone.

Test system: voltage operated calcium channels
Assay: Inhibition of potassium (depolarization) stimulated 45Ca uptake into rat cerebral cortex synaptosomes
Assay type: biochemical, male Wistar rat
Settings: concentration inhibiting 20% of potassium stimulated 45Ca uptake, corrected for basal uptake, 145 mM KCl, 15 seconds, 37° C.
Excerpt: A high influx of calcium from extracelluar compartments into neurons is seen after opening of voltage operated calcium channels. Such opening of calcium channels may be induced by depolarization of neuronal membranes.
A crude synaptosome preparation contains small vesicles surrounded by neuronal membranes, and it is possible to study an opening of the voltage operated calcium channels in such a preparation.
In the below described test influx of ^45 Ca into synaptosomes is studied under depolarized conditions. The effect of test substances on the depolarization induced calcium uptake can thus be studied.
The cerebral cortex from a male Wistar rat is homogenized in 20 ml ice cold 0.32M saccharose. In the following steps the temperature is kept at 0° C. to 4° C. The homogenate is centrifuged at 1,000×g for 10 minutes and the supernatant recentrifuged for 20 minutes at 18,000×g. […]
The ^45 Ca uptake is stopped by filtering through glass fibre filters, which are subsequently washed 3 times with an ice cold solution of 145 mM KCl, 7 mM EGTA and 20 mM Tris HCl, pH 7.4 (5. ml). The radioactivity on the filters are measured by liquid scintillation spectrometry. […]
The test value is given as IC20, that is the concentration in μM of the test substances, which inhibit 20% of the potassium stimulated uptake of ^45 Ca. […] The IC20 value is determined from a dose response curve.

Compound | IC20 [µM]
O=C(c1ccccc1)C(c1ccccc1)N1CCN=C1CN(Cc1ccccc1)c1ccccc1 (stereo not drawn) [1-(α-Benzoylbenzyl)-2-(N-phenyl-N-(benzyl)-methanamine)-4,5-dihydro-imidazole] | 0.4
c1ccc(CN2CCN=C2CN(Cc2ccccc2)c2ccccc2)cc1 [1-benzyl-2-(N-phenyl-N-benzyl-methanamine)-4,5-dihydro-imidazole, hydrochloride] | 0.4
